Source: PubChem BioAssay AID256 (DTP/NCI, 2004)
Values joined by “and” are separate entries in the source; they are usually repeats but may differ in a detail not shown here. Equal entries are not always repeated. Toxic doses and inconclusive results are not listed.

System: CD2F1 mice, L1210 leukemia ip, survival T/C
Test: NCI In Vivo Anticancer Drug Screen. Data for tumor model L1210 Leukemia (intraperitoneal) in CD2F1 (CDF1) mice
Settings: endpoint: mean survival time, higher = longer survival
In short: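 Implant tumor; dose compound or vehicle; measure endpoint in both groups; report treated divided by control.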

[1] = dose: 100.0 mg/kg/injection, schedule: Q04DX003 (ip), vehicle: saline with Tween-80
[2] = dose: 200.0 mg/kg/injection, schedule: Q04DX003 (ip), vehicle: saline with Tween-80
[3] = dose: 400.0 mg/kg/injection, schedule: Q04DX003 (ip), vehicle: saline with Tween-80
[4] = dose: 100.0 mg/kg/injection, schedule: Q04DX003 (ip), vehicle: other
[5] = dose: 200.0 mg/kg/injection, schedule: Q04DX003 (ip), vehicle: other
[6] = dose: 100.0 mg/kg/injection, schedule: Q01DX001 (ip), vehicle: saline with Tween-80
[7] = dose: 200.0 mg/kg/injection, schedule: Q01DX001 (ip), vehicle: saline with Tween-80
[8] = dose: 100.0 mg/kg/injection, schedule: Q01DX009 (ip), vehicle: saline with Tween-80
[9] = dose: 200.0 mg/kg/injection, schedule: Q01DX009 (ip), vehicle: saline with Tween-80
[10] = dose: 400.0 mg/kg/injection, schedule: Q01DX009 (ip), vehicle: saline with Tween-80
[11] = dose: 100.0 mg/kg/injection, schedule: Q04DX003 (ip), vehicle: Klucel (hydroxypropylcellulose) (HPC)
[12] = dose: 200.0 mg/kg/injection, schedule: Q04DX003 (ip), vehicle: Klucel (hydroxypropylcellulose) (HPC)
[13] = dose: 50.0 mg/kg/injection, schedule: Q01DX009 (ip), vehicle: saline with Tween-80

## O=C1CCCN1.O=C1CCCN1.[Br][Co][Br]
dose: 37.5 mg/kg/injection, schedule: Q01DX009 (ip), vehicle: saline
  T/C: 102 % of control
dose: 75.0 mg/kg/injection, schedule: Q01DX009 (ip), vehicle: saline
  T/C: 107 % of control

## N#CCCC(C#N)(CCC#N)C(N)=O
[1]
  T/C: 98 % of control
[2]
  T/C: 98 % of control
[3]
  T/C: 107 % of control

## O=C(O)C1CCCCC1C(=O)O.[NH-]C1CCCCC1[NH-].[Pt+2] (stereo unspecified)
dose: 3.13 mg/kg/injection, schedule: Q04DX003 (ip), vehicle: other
  T/C: 106 % of control
dose: 6.25 mg/kg/injection, schedule: Q04DX003 (ip), vehicle: other
  T/C: 106 % of control
dose: 12.5 mg/kg/injection, schedule: Q04DX003 (ip), vehicle: other
  T/C: 116 % of control
[4]
  T/C: 187 % of control
[5]
  T/C: 168 % of control

## CCOC(=O)CCC(NC(=O)c1ccc(N(Cc2ccccc2)Cc2cnc3nc(N)nc(N)c3n2)cc1)C(=O)OCC (stereo unspecified)
dose: 100.0 mg/kg/injection, schedule: Q01DX001 (ip), vehicle: Klucel (hydroxypropylcellulose) (HPC)
  T/C: 87 % of control
dose: 200.0 mg/kg/injection, schedule: Q01DX001 (ip), vehicle: Klucel (hydroxypropylcellulose) (HPC)
  T/C: 94 % of control
dose: 400.0 mg/kg/injection, schedule: Q01DX001 (ip), vehicle: Klucel (hydroxypropylcellulose) (HPC)
  T/C: 97 % of control

## CS(C)=O
dose: 46.87 mg/kg/injection, schedule: Q01DX009 (ip), vehicle: saline
  T/C: 95 % of control
dose: 93.75 mg/kg/injection, schedule: Q01DX009 (ip), vehicle: saline
  T/C: 100 % of control and 103 % of control
dose: 187.5 mg/kg/injection, schedule: Q01DX009 (ip), vehicle: saline
  T/C: 100 % of control and 101 % of control
dose: 375.0 mg/kg/injection, schedule: Q01DX009 (ip), vehicle: saline
  T/C: 95 % of control and 100 % of control
dose: 750.0 mg/kg/injection, schedule: Q01DX009 (ip), vehicle: saline
  T/C: 97 % of control and 100 % of control
dose: 1500.0 mg/kg/injection, schedule: Q01DX009 (ip), vehicle: saline
  T/C: 100 % of control
dose: 1.5 grams/kg/injection, schedule: Q01DX009 (ip), vehicle: saline
  T/C: 87 % of control and 100 % of control
dose: 3.0 grams/kg/injection, schedule: Q01DX009 (ip), vehicle: saline
  T/C: 95 % of control
dose: 6.0 grams/kg/injection, schedule: Q01DX009 (ip), vehicle: saline
  T/C: 89 % of control and 100 % of control

## CS/C([S-])=N/N=C/c1ccccn1.[Cl][Pt+]
[1]
  T/C: 94 % of control
[2]
  T/C: 100 % of control

## Nc1ccccc1C(=O)C/C=C/c1ccccc1
[6]
  T/C: 95 % of control
[7]
  T/C: 91 % of control
dose: 400.0 mg/kg/injection, schedule: Q01DX001 (ip), vehicle: saline with Tween-80
  T/C: 87 % of control

## O=C1C(Cl)=C(NCc2ccc(Cl)cc2)C(=O)c2ccccc21
dose: 25.0 mg/kg/injection, schedule: Q04DX003 (ip), vehicle: saline with Tween-80
  T/C: 102 % of control
dose: 50.0 mg/kg/injection, schedule: Q04DX003 (ip), vehicle: saline with Tween-80
  T/C: 91 % of control
[1]
  T/C: 91 % of control

## Nn1cnnc1
dose: 100.0 mg/kg/injection, schedule: Q01DX001 (ip), vehicle: saline
  T/C: 98 % of control
dose: 200.0 mg/kg/injection, schedule: Q01DX001 (ip), vehicle: saline
  T/C: 93 % of control

## O=C(Oc1ccc(OC(=O)c2ccccc2)c2c1C(=O)C(CBr)=C(CBr)C2=O)c1ccccc1
dose: 0.75 mg/kg/injection, schedule: Q01DX009 (ip), vehicle: water
  T/C: 93 % of control
dose: 1.5 mg/kg/injection, schedule: Q01DX009 (ip), vehicle: water
  T/C: 101 % of control
dose: 3.0 mg/kg/injection, schedule: Q01DX009 (ip), vehicle: water
  T/C: 93 % of control and 97 % of control
dose: 6.0 mg/kg/injection, schedule: Q01DX009 (ip), vehicle: water
  T/C: 93 % of control and 95 % of control
dose: 12.0 mg/kg/injection, schedule: Q01DX009 (ip), vehicle: water
  T/C: 93 % of control
dose: 12.5 mg/kg/injection, schedule: Q01DX009 (ip), vehicle: water
  T/C: 86 % of control
dose: 24.0 mg/kg/injection, schedule: Q01DX009 (ip), vehicle: water
  T/C: 90 % of control
dose: 25.0 mg/kg/injection, schedule: Q01DX009 (ip), vehicle: water
  T/C: 91 % of control
dose: 50.0 mg/kg/injection, schedule: Q01DX009 (ip), vehicle: water
  T/C: 87 % of control
dose: 100.0 mg/kg/injection, schedule: Q01DX009 (ip), vehicle: water
  T/C: 100 % of control
dose: 200.0 mg/kg/injection, schedule: Q01DX009 (ip), vehicle: water
  T/C: 86 % of control

## O=C(CNC(=O)Nc1cccc([N+](=O)[O-])c1)NNC(=O)Nc1ccc(Cl)c([N+](=O)[O-])c1
[8]
  T/C: 91 % of control
[9]
  T/C: 87 % of control

## O=C(O)/C=C/C(=O)Nc1cccc2cccnc12
[8]
  T/C: 93 % of control
[1]
  T/C: 98 % of control
[9]
  T/C: 102 % of control
[2]
  T/C: 93 % of control
[10]
  T/C: 100 % of control
[3]
  T/C: 98 % of control

## CCN(CC)CC(COC)Oc1cc(C)ccc1C(C)C (stereo unspecified)
[11]
  T/C: 92 % of control
[12]
  T/C: 93 % of control

## SC1(SC2(S)CCCCC2)CCCCC1
[8]
  T/C: 102 % of control
[9]
  T/C: 112 % of control
[10]
  T/C: 103 % of control

## C/C=C\c1ccc(OCCOC(=O)Nc2c(Cl)cccc2Cl)c(OC)c1
dose: 12.5 mg/kg/injection, schedule: Q01DX009 (ip), vehicle: saline with Tween-80
  T/C: 103 % of control
dose: 25.0 mg/kg/injection, schedule: Q01DX009 (ip), vehicle: saline with Tween-80
  T/C: 97 % of control
[13]
  T/C: 94 % of control and 99 % of control
[8]
  T/C: 94 % of control
[9]
  T/C: 94 % of control

## Nc1cccc2cnccc12
[8]
  T/C: 100 % of control
[1]
  T/C: 91 % of control
[9]
  T/C: 98 % of control
[2]
  T/C: 93 % of control
[3]
  T/C: 96 % of control

## C1=C[S+](c2ccccc2)C(c2ccccc2)c2ccccc21 (stereo unspecified)
dose: 12.5 mg/kg/injection, schedule: Q04DX002 (ip), vehicle: Klucel (hydroxypropylcellulose) (HPC)
  T/C: 106 % of control
dose: 25.0 mg/kg/injection, schedule: Q04DX002 (ip), vehicle: Klucel (hydroxypropylcellulose) (HPC)
  T/C: 115 % of control

## CC(=O)Oc1c(Br)c(-c2cc([N+](=O)[O-])c(C)c([N+](=O)[O-])c2C)c(OC(C)=O)c(Br)c1-c1cc([N+](=O)[O-])c(C)c([N+](=O)[O-])c1C
[1]
  T/C: 93 % of control
[2]
  T/C: 93 % of control
[3]
  T/C: 87 % of control

## NC(Cc1c[nH]c2ccccc12)C(=O)O (stereo unspecified)
dose: 50.0 mg/kg/injection, schedule: Q01DX001 (ip), vehicle: saline with Tween-80
  T/C: 98 % of control
[6]
  T/C: 98 % of control
[7]
  T/C: 101 % of control

## O=S=Nc1ccc(S(=O)(=O)c2ccc(N=S=O)cc2)cc1
[13]
  T/C: 96 % of control
[1]
  T/C: 95 % of control
[9]
  T/C: 101 % of control
[2]
  T/C: 95 % of control

## O=C(O)C1C2CC3C(C2)C31 (stereo unspecified)
dose: 100.0 mg/kg/injection, schedule: Q01DX009 (ip), vehicle: other
  T/C: 96 % of control
dose: 200.0 mg/kg/injection, schedule: Q01DX009 (ip), vehicle: other
  T/C: 104 % of control

## O=C(O)C1=CCC=CC1
[8]
  T/C: 104 % of control
[9]
  T/C: 97 % of control
[10]
  T/C: 106 % of control

## CCOn1nc(-c2ccccc2)oc1=O
[4]
  T/C: 96 % of control
[5]
  T/C: 93 % of control
dose: 400.0 mg/kg/injection, schedule: Q04DX003 (ip), vehicle: other
  T/C: 116 % of control

## CC(C#N)(Cc1ccccc1)Nc1ccccc1 (stereo unspecified)
[1]
  T/C: 97 % of control
[2]
  T/C: 91 % of control

## CC(=N)N(C)CC(=O)O
dose: 100.0 mg/kg/injection, schedule: Q04DX002 (ip), vehicle: saline
  T/C: 103 % of control
dose: 200.0 mg/kg/injection, schedule: Q04DX002 (ip), vehicle: saline
  T/C: 103 % of control
dose: 400.0 mg/kg/injection, schedule: Q04DX002 (ip), vehicle: saline
  T/C: 100 % of control

## COCCNC1=C(C)C(=O)C2=C(C1=O)[C@H](COC(N)=O)[C@]1(OC)[C@@H]3N[C@@H]3CN21
dose: 3.0 mg/kg/injection, schedule: Q01DX001 (ip), vehicle: distilled water + Tween-80
  T/C: 114 % of control
dose: 24.0 mg/kg/injection, schedule: Q01DX001 (ip), vehicle: distilled water + Tween-80
  T/C: 123 % of control

## C#CCCCCCCCCCCC1(c2ccccc2)OCCO1
[11]
  T/C: 94 % of control
[12]
  T/C: 97 % of control
dose: 400.0 mg/kg/injection, schedule: Q04DX003 (ip), vehicle: Klucel (hydroxypropylcellulose) (HPC)
  T/C: 95 % of control
